Experimental data: patent US20250206732A1, “COMPOUNDS AND METHODS FOR THE TARGETED DEGRADATION OF KRAS” (Arvinas Operations, Inc., priority 2022, published 2025)

Molecular target: T1, AsPC-1 HiBiT-KRASG12D (Homo sapiens, UniProt P01116, G12D)
T1 construct: insert the HiBiT tag onto the N-terminus of one or more of the endogenous KRAS alleles; endogenous in cells; host or cells: AsPC-1 (ATCC CRL-1682), CRISPR-Cas9 knock-in clone, one tagged allele
Assay: HiBiT degradation assay (G12D), AsPC-1 HiBiT-KRASG12D cells
Type: cell-based
Conditions: 24 hours treatment; for Dmax: ASPC1, AsPC-1 HiBiT-KRASG12D cells; for Dmax / AsPC-1 HiBiT-KRASG12D DMax: maximum degradation observed; for DC50 / AsPC-1 HiBiT-KRASG12D DMax: AsPC-1 HiBiT-KRASG12D cells; for DC50: HiBiT luminescence
How it was run: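 HiBiT-KRAS abundance was read as Nano-Glo HiBiT lytic luminescence (45 min, room temperature) after a PBS wash. Before that, a 4 h alamar blue fluorescence read, normalized to DMSO, monitored viability. Treatment lasted 24 hours at 37 °C, in triplicate, using AsPC-1 cells with endogenous N-terminally HiBiT-tagged KRAS G12D.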

T1 sequence (P01116 1-188 isoform P01116-2 G12D): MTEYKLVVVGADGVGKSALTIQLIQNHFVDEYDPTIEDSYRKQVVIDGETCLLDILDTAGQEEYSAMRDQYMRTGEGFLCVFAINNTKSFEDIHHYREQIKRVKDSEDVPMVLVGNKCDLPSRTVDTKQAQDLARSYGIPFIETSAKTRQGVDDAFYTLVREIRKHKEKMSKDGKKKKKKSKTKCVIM

Structure (SMILES)	Dmax [%]	DC50 [nM]	AsPC-1 HiBiT-KRASG12D DMax
CCc1cccc2cc(O)cc(-c3ncc4c(N5CC6CCC(C5)N6)nc(OCCN5CCC(C6CN(c7cc([C@@H](C(=O)N8C[C@H](O)C[C@H]8C(=O)N[C@@H](C)c8ccc(-c9scnc9C)cc8)C(C)C)on7)C6)CC5)nc4c3F)c12 (single isomer, unassigned) [Compound 277]	20 to 60	1000 to 3000	
C#Cc1c(F)ccc2cc(O)cc(-c3ncc4c(N5CC6CCC(C5)N6)nc(OCCN5CCC(CC6CN(c7cc([C@H](C(=O)N8C[C@H](O)C[C@H]8C(=O)N[C@@H](C)c8ccc(-c9scnc9C)cc8)C(C)C)on7)C6)CC5)nc4c3F)c12 (single isomer, unassigned) [Compound 288]	80 to 100	< 600	
C#Cc1c(F)ccc2cc(O)cc(-c3ncc4c(N5CC6CCC(C5)N6)nc(OCCN5CCC(CC6CCN(c7cc([C@@H](C(=O)N8C[C@H](O)C[C@H]8C(=O)N[C@@H](C)c8ccc(-c9scnc9C)cc8)C(C)C)on7)CC6)CC5)nc4c3F)c12 (single isomer, unassigned) [Compound 308]	60 to 80	< 600	
CCc1cccc2cc(O)cc(-c3ncc4c(N5CC6CCC(C5)N6)nc(OCCN5CCC(CC6CCN(c7cc(C(C(=O)N8C[C@H](O)C[C@H]8C(=O)N[C@@H](C)c8ccc(-c9scnc9C)cc8)C(C)C)on7)CC6)CC5)nc4c3F)c12 (single isomer, unassigned) [Compound 320]		< 600	A (80% < A ≤ 100%)
CCc1cccc2cc(O)cc(-c3ncc4c(N5CC6CCC(C5)N6)nc(OCCN5CCC(CC6CCN(c7cc(C(C(=O)N8C[C@H](O)C[C@H]8C(=O)N[C@@H](C)c8ccc(-c9scnc9C)cc8)C(C)C)on7)CC6)CC5)nc4c3F)c12 (single isomer, unassigned) [Compound 321]		600 to 1000	C (20% <C ≤ 60%)
Cc1ncsc1-c1ccc([C@H](C)NC(=O)[C@@H]2C[C@@H](O)CN2C(=O)[C@@H](c2cc(N3CCN(C(=O)OC[C@H]4CC[C@@]5(COc6nc(N7CC8CCC(C7)N8)c7cc(Cl)c(-c8cc(O)cc9ccccc89)c(F)c7n6)CCCN45)CC3)no2)C(C)C)cc1 (single isomer, unassigned) [Compound 329]	80 to 100	< 600	
C#Cc1c(F)ccc2cccc(-c3ncc4c(N5CC6CCC(C5)N6)nc(OC[C@]56CCCN5[C@@H](COC(=O)N5CCN(c7cc([C@H](C(=O)N8C[C@H](O)C[C@H]8C(=O)N[C@@H](C)c8ccc(-c9scnc9C)cc8)C(C)C)on7)CC5)CC6)nc4c3F)c12 (single isomer, unassigned) [Compound 333]	80 to 100	< 600	
CCc1cccc2cc(O)cc(-c3ncc4c(N5CCCCCC5)nc(OC[C@@]56CCCN5[C@H](COc5cc([C@H](C(=O)N7C[C@H](O)C[C@H]7C(=O)N[C@@H](C)c7ccc(-c8scnc8C)cc7)C(C)C)on5)CC6)nc4c3F)c12 (single isomer, unassigned) [Compound 338]	80 to 100	< 600	
CCc1cccc2cc(O)cc(-c3ncc4c(N5CCCCCC5)nc(OC[C@@]56CCCN5[C@H](COc5cc([C@@H](C(=O)N7C[C@H](O)C[C@H]7C(=O)N[C@@H](C)c7ccc(-c8scnc8C)cc7)C(C)C)on5)CC6)nc4c3F)c12 (single isomer, unassigned) [Compound 339]		> 3000	
CCc1cccc2cc(O)cc(-c3ncc4c(N5CC6CCC(C5)N6)nc(OC[C@@]56CCCN5[C@H](COC(=O)N5CCN(c7cc([C@H](C(=O)N8C[C@H](O)C[C@H]8C(=O)N[C@@H](C)c8ccc(-c9scnc9C)cc8)C(C)C)on7)CC5)CC6)nc4c3F)c12 (stereo in doubt) [Compound 7]		< 600	
CCc1cccc2cc(O)cc(-c3ncc4c(N5CC6CCC(C5)N6)nc(OC[C@@]56CCCN5[C@H](COC(=O)N5C[C@@H](C)N(c7cc([C@H](C(=O)N8C[C@H](O)C[C@H]8C(=O)N[C@@H](C)c8ccc(-c9scnc9C)cc8)C(C)C)on7)C[C@@H]5C)CC6)nc4c3F)c12 (stereo in doubt) [Compound 299, [(3S,8R)-8-[[4-(3,8-diazabicyclo[3.2.1]octan-3-yl)-7-(8-ethyl-3-hydroxy-1-naphthyl)-8-fluoro-pyrido[4,3-d]pyrimidin-2-yl]oxymethyl]-1,2,3,5,6,7-hexahydropyrrolizin-3-yl]methyl (2S,5R)-4-[5-[(1R)-1-[(2S,4R)-4-hydroxy-2-[[(1S)-1-[4-(4-methylthiazol-5-yl)phenyl]ethyl]carbamoyl]pyrrolidine-1-carbonyl]-2-methyl-propyl]isoxazol-3-yl]-2,5-dimethyl-piperazine-1-carboxylate]	80 to 100	< 600	
Cc1ncsc1-c1ccc([C@H](C)NC(=O)[C@@H]2C[C@@H](O)CN2C(=O)[C@@H](c2cc(OCC3CCN(CCOc4nc(N5CC6CCC(C5)N6)c5cnc(-c6cc(O)cc(Cl)c6C(F)(F)F)c(F)c5n4)CC3)no2)C(C)C)cc1 [Compound 24, (2S,4R)-1-[(2R)-2-[3-({1-[2-({7-[3-chloro-5-hydroxy-2-(trifluoromethyl)phenyl]-4-{3,8-diazabicyclo[3.2.1]octan-3-yl}-8-fluoropyrido[4,3-d]pyrimidin-2-yl}oxy)ethyl]piperidin-4-yl}methoxy)-1,2-oxazol-5-yl]-3-methylbutanoyl]-4-hydroxy-N-[(1S)-1-[4-(4-methyl-1,3-thiazol-5-yl)phenyl]ethyl]pyrrolidine-2-carboxamide]	80 to 100	< 600	
CCc1cccc2cc(O)cc(-c3ncc4c(N5CC6CCC(C5)N6)nc(O[C@H](C)CN5CCC6(CC5)CN(c5cc([C@H](C(=O)N7C[C@H](O)C[C@H]7C(=O)N[C@@H](C)c7ccc(-c8scnc8C)cc7)C(C)C)on5)C6)nc4c3F)c12 [Compound 25, (2S,4R)-1-[(2R)-2-(3-{7-[(2R)-2-[(4-{3,8-diazabicyclo[3.2.1]octan-3-yl}-7-(8-ethyl-3-hydroxynaphthalen-1-yl)-8-fluoropyrido[4,3-d]pyrimidin-2-yl)oxy]propyl]-2,7-diazaspiro[3.5]nonan-2-yl}-1,2-oxazol-5-yl)-3-methylbutanoyl]-4-hydroxy-N-[(1S)-1-[4-(4-methyl-1,3-thiazol-5-yl)phenyl]ethyl]pyrrolidine-2-carboxamide]	20 to 60	600 to 1000	
CCc1cccc2cc(O)cc(-c3ncc4c(N5CC6CCC(C5)N6)nc(OC[C@]56CCCN5[C@@H](COc5cc([C@H](C(=O)N7C[C@H](O)C[C@H]7C(=O)N[C@@H](C)c7ccc(-c8scnc8C)cc7)C(C)C)on5)CC6)nc4c3F)c12 [Compound 27, (2S,4R)-1-[(2R)-2-(3-{[(3R,7aR)-7a-{[(4-{3,8-diazabicyclo[3.2.1]octan-3-yl}-7-(8-ethyl-3-hydroxynaphthalen-1-yl)-8-fluoropyrido[4,3-d]pyrimidin-2-yl)oxy]methyl}-hexahydro-1H-pyrrolizin-3-yl]methoxy}-1,2-oxazol-5-yl)-3-methylbutanoyl]-4-hydroxy-N-[(1S)-1-[4-(4-methyl-1,3-thiazol-5-yl)phenyl]ethyl]pyrrolidine-2-carboxamide]		< 600	
CCc1cccc2cc(O)cc(-c3ncc4c(N5CC6CCC(C5)N6)nc(OC[C@]56CCCN5[C@@H](COc5cc([C@@H](C(=O)N7C[C@H](O)C[C@H]7C(=O)N[C@@H](C)c7ccc(-c8scnc8C)cc7)C(C)C)on5)CC6)nc4c3F)c12 [Compound 28, (2S,4R)-1-[(2S)-2-(3-{[(3R,7aR)-7a-{[(4-{3,8-diazabicyclo[3.2.1]octan-3-yl}-7-(8-ethyl-3-hydroxynaphthalen-1-yl)-8-fluoropyrido[4,3-d]pyrimidin-2-yl)oxy]methyl}-hexahydro-1H-pyrrolizin-3-yl]methoxy}-1,2-oxazol-5-yl)-3-methylbutanoyl]-4-hydroxy-N-[(1S)-1-[4-(4-methyl-1,3-thiazol-5-yl)phenyl]ethyl]pyrrolidine-2-carboxamide]		> 3000	
CCc1cccc2cc(O)cc(-c3ncc4c(N5CC6CCC(C5)N6)nc(OC[C@@]56CCCN5[C@H](COc5cc([C@H](C(=O)N7C[C@H](O)C[C@H]7C(=O)N[C@@H](C)c7ccc(-c8scnc8C)cc7)C(C)C)on5)CC6)nc4c3F)c12 [Compound 29, (2S,4R)-1-[(2R)-2-(3-{[(3S,7aS)-7a-{[(4-{3,8-diazabicyclo[3.2.1]octan-3-yl}-7-(8-ethyl-3-hydroxynaphthalen-1-yl)-8-fluoropyrido[4,3-d]pyrimidin-2-yl)oxy]methyl}-hexahydro-1H-pyrrolizin-3-yl]methoxy}-1,2-oxazol-5-yl)-3-methylbutanoyl]-4-hydroxy-N-[(1S)-1-[4-(4-methyl-1,3-thiazol-5-yl)phenyl]ethyl]pyrrolidine-2-carboxamide]	80 to 100	< 600	
CCc1cccc2cc(O)cc(-c3ncc4c(N5CC6CCC(C5)N6)nc(OC[C@@]56CCCN5[C@H](COc5cc([C@@H](C(=O)N7C[C@H](O)C[C@H]7C(=O)N[C@@H](C)c7ccc(-c8scnc8C)cc7)C(C)C)on5)CC6)nc4c3F)c12 [Compound 30, (2S,4R)-1-[(2S)-2-(3-{[(3S,7aS)-7a-{[(4-{3,8-diazabicyclo[3.2.1]octan-3-yl}-7-(8-ethyl-3-hydroxynaphthalen-1-yl)-8-fluoropyrido[4,3-d]pyrimidin-2-yl)oxy]methyl}-hexahydro-1H-pyrrolizin-3-yl]methoxy}-1,2-oxazol-5-yl)-3-methylbutanoyl]-4-hydroxy-N-[(1S)-1-[4-(4-methyl-1,3-thiazol-5-yl)phenyl]ethyl]pyrrolidine-2-carboxamide]	20 to 60	< 600	
